In paper PMC6268831 (Molecules, 2012):

Assays:
rat thymocytes [1] = test: Cell viability of rat thymocytes by CCK-8 assay; assay type: cell-based; conditions: 24 h, absorbance ratio to control cells, mean ± SD
Procedure: (§1) Experiments were performed on adult male Wistar rats (150−180 g), 8−10 weeks old, bred at the Vivarium of the Institute of Biomedical Research, Medical Faculty, Nis, Serbia, under conventional laboratory conditions and in accordance with national animal protection guidelines.
(§2) Rat thymocytes were isolated as described previously. The viability of the isolated cells, as determined by trypan blue dye exclusion test, was always over 95%. Isolated thymocytes were counted and adjusted to a density of 5 × 10^6 cells/mL of CM.
(§3) Isolated thymocytes were cultivated in 96-well round-bottom plates (NUNC, Aarhus, Denmark), containing a 100 µL of cell suspension (5 × 10^5 cells) in each well. […] Control samples were cultured in CM, with appropriate amounts of 96% ethanol (9.6%). Concentrations of tested substances used in our study were adopted from our previous report, regarding the effect of different compounds on thymocytes toxicity. All cell cultures were done in triplicates and cultivated for 24 h in an incubator (Galaxy, Wolf Laboratories, Pocklington, UK) with 5% CO2 at 37 °C.
Cell viability of rat thymocytes, after cultivation period, was evaluated by CCK-8 assay as was previously described. Ten µL of reaction mixture was added in each well. After 2 h of incubation, the solubilized formazan product was quantified spectrophotometrically, by using a microplate reader Perkin-Elmer (Wallac Victor^2V, Turku, Finland). Absorbance was measured at 450 nm. For each sample, basal intensity values were subtracted from those obtained after different treatments. Absorbances were presented as ratio for comparison with control samples.

rat thymocytes [2] = test: Mitochondrial membrane potential of rat thymocytes (Rhodamine 123 uptake); assay type: cell-based; conditions: 24 h, ratio of mean fluorescence intensity to control, mean ± SD
Procedure: Experiments were performed on adult male Wistar rats (150−180 g), 8−10 weeks old, bred at the Vivarium of the Institute of Biomedical Research, Medical Faculty, Nis, Serbia, under conventional laboratory conditions and in accordance with national animal protection guidelines. Rat thymocytes were isolated as described previously. The viability of the isolated cells, as determined by trypan blue dye exclusion test, was always over 95%. Isolated thymocytes were counted and adjusted to a density of 5 × 10^6 cells/mL of CM. […] Control samples were cultured in CM, with appropriate amounts of 96% ethanol (9.6%). Concentrations of tested substances used in our study were adopted from our previous report, regarding the effect of different compounds on thymocytes toxicity. All cell cultures were done in triplicates and cultivated for 24 h in an incubator (Galaxy, Wolf Laboratories, Pocklington, UK) with 5% CO2 at 37 °C. […] The fluorescence of intracellular Rhodamine 123 (excitation 485 nm; emission 530 nm) was measured by Perkin-Elmer fluorimeter, as published earlier. For each sample, basal fluorescence intensity values were subtracted from those obtained after different treatments and results were presented as ratio of mean fluorescence intensity (MFI).

rat thymocytes [3] = test: Intracellular ROS production in rat thymocytes (H2DCF-DA probe); assay type: cell-based; conditions: 24 h, ratio of mean fluorescence intensity to control, mean ± SD
Procedure: as §1, §2, §3
A redox-sensitive probe (H2DCF-DA) was used to determine changes in overall cellular ROS levels, as described previously. The change in fluorescence (excitation 485 nm; emission 530 nm) was measured using a Perkin-Elmer fluorimeter (Wallac Victor^2V). For each sample, basal fluorescence intensity values were subtracted from those obtained after different treatments and results were presented as ratio of mean fluorescence intensity (MFI).

[4] = test system: human acute monocytic leukemia cell line (THP-1); conditions: tested as essential oil, lower concentrations than in this study, trypan blue viability assay; cited from earlier work

| SMILES | Cytotoxicity (CCK-8 assay) (rat thymocytes [1]; 0.5 µg/mL) | Cytotoxicity (CCK-8 assay) (rat thymocytes [1]; 5 µg/mL) | Cytotoxicity (CCK-8 assay) (rat thymocytes [1]; 50 µg/mL) | Mitochondrial membrane potential (rat thymocytes [2]; 0.5 µg/mL) | Mitochondrial membrane potential (rat thymocytes [2]; 5 µg/mL) | Mitochondrial membrane potential (rat thymocytes [2]; 50 µg/mL) | Intracellular ROS production (rat thymocytes [3]; 0.5 µg/mL) | Intracellular ROS production (rat thymocytes [3]; 5 µg/mL) | Intracellular ROS production (rat thymocytes [3]; 50 µg/mL) | Toxic effect on THP-1 cells [4] |
| --- | --- | --- | --- | --- | --- | --- | --- | --- | --- | --- |
| CC1(C)C2CCC1(C)C(O)C2 (stereo not shown) [Borneol, 4,7,7-trimethylbicyclo[2.2.1]heptan-3-ol] | 1.067 ± 0.004 | 1.070 ± 0.015 | 0.975 ± 0.144 | 0.799 ± 0.022 | 0.856 ± 0.084 | 0.876 ± 0.110 | 1.268 ± 0.102 | 1.224 ± 0.108 | 1.164 ± 0.191 |  |
| CC12CCC(CC1=O)C2(C)C (stereo not shown) [Camphor, 4,7,7-trimethylbicyclo[2.2.1]heptan-3-one] | 0.927 ± 0.132 | 1.024 ± 0.083 | 1.111 ± 0.033 | 0.740 ± 0.071 | 0.919 ± 0.047 | 0.925 ± 0.132 | 1.413 ± 0.068 | 1.399 ± 0.093 | 1.251 ± 0.049 | no significant toxic effect |
